Read-outs that look alike come from different tables or passages of the source. Square brackets hold non-standard residues; d marks the D form. Peptide text beside a SMILES is read from it. * marks the point of attachment. ξ: configuration not given here. Phe(4-NO2) = N[C@@H](Cc1ccc([N+](=O)[O-])cc1)C(=O)O; Quinoline3carbonyl = O=C(c1cnc2ccccc2c1)*; Pyrazinecarbonyl = O=C(c1cnccn1)*; Quinaldoyl = O=C(c1ccc2ccccc2n1)*; Brosyl = O=S(=O)(c1ccc(Br)cc1)*; Cha = N[C@@H](CC1CCCCC1)C(=O)O; X15 = O=S(=O)(c1cccc2cccnc12)*; ξAtc = NC1(C(=O)O)CCc2ccccc2C1; NMeL = CN[C@@H](CC(C)C)C(=O)O; Phg = N[C@H](C(=O)O)c1ccccc1; NMeV = CN[C@H](C(=O)O)C(C)C; X19 = O=C(Cc1ccc(Br)cc1)*; Nle = CCCC[C@H](N)C(=O)O; Nva = CCC[C@H](N)C(=O)O; PhAc = O=C(Cc1ccccc1)*; X18 = O=C(c1cn[nH]c1)*
Biological target: VLA-4 (Homo sapiens, UniProt P05556+P13612)
Test: In vitro binding inhibition of 51Cr-labeled Jurkat cells to solid phase-bound CS-1 compound (SEQ ID NO:1)
Type: cell-based
Parameters: inflammatory cells that contain the VLA-4 receptor [Jurkat cells; host or cells: Jurkat (human T lymphoblastic line)
Protocol: Binding inhibition is measured here as a concentration of compound that inhibits one-half the binding between a standard number of Jurkat cells and a standard amount of CS-1 compound bound to the surface of a microtiter plate well. Those concentrations are conveniently expressed as IC50 values, smaller numbers indicating a lower concentration required to inhibit 50 percent binding and therefore greater potency. Further specifics of this assay are provided hereinafter.
Jurkat cells (ATCC TIB 152), a human T lymphoblastic line, labeled with ^51 chromium were used to assay in vitro binding inhibition provided by various compounds discussed herein.
The plates were prepared as follows: The 25-mer CS-1 compound (SEQ ID NO:1) dissolved at 0.5-1 μg/ml in a buffer of 0.1M NaHCO3 at pH 9.5 that also contained 10 μg/ml of bovine serum albumin (BSA) or a conjugate of the CS-1 compound linked to […] (CS-1-OVA) dissolved at 1-2.5 μg/ml in the same buffer was used as the substrate. Each well of the microtiter plates was coated with 50 μl of substrate or buffer alone for controls. The wells were permitted to dry out completely and were then rinsed twice with PBS at pH 7.4. Non-specific binding sites of each well were then blocked using 200 μl per well of RPMI/1 percent BSA for two hours at room temperature.
Jurkat cells (3-5×10^6 cells) were placed into a 15 ml Falcon™ round-bottom tube with a cap. The tube was centrifuged, and the extra medium was then removed.
Two hundred microliters of a ^51 Cr labeling solution were added to the centrifuged cells and maintained in contact with the cells for 90-120 minutes in a warm room. […] Longer contact times provide a greater amount of labeling but lower cell viability.
The labeled cells are washed with (i) complete medium, (ii) 1 mM EDTA/PBS and then (iii) RPM1/1 percent BSA free of serum components. The cells are centrifuged after each washing. The cells are finally resuspended in serum-free RPMI/1 percent BSA at a concentration of 1×10^6 viable cells/ml, which provides a concentration that is diluted by one-half in the assay.
Inhibitor compounds are prepared as stock solutions at 20 mg/ml in DMSO in 1.5 ml cryogenic screwcap vials, and were stored at -70° C. Using Flow™ round-bottom or V-bottom microtiter plates, the inhibitor compounds were prepared at twice the assay concentration in RPMI/1 percent BSA at 60 μl/well.
Four initial dilutions were typically used.
The ^51 Cr-labeled cells ([…] at 60 μl/well) were then admixed with the diluted compound solutions. The admixtures were maintained at room temperature (about 22° C.) for 30 minutes.
One hundred microliters of each inhibitor compound/cell admixture were transferred to the substrate-coated wells. This was done in triplicate for each dilution. The resulting plates were incubated for 30 minutes at 37° C. and then washed gently three times with RPMI/1 percent BSA at 200 μl/well. Binding was observed microscopically, particularly after the second wash.
The bound cells were then lysed by the addition of a 0.5 percent solution of sodium dodecylsulfate in water at 100 μl/well. The resulting solutions were then processed for counting and calculation of IC50 values following usual procedures.
The data of Table 1 are normalized to the binding of SEQ ID NO: 3. […] Multiple assays for the same compound were averaged.

[1] = binding inhibition potency relative to standard compound of SEQ ID NO:3 = 1 (normalized IC50), about one-tenth or less assigned zero

VLA-4, sequence (P13612 34-1032): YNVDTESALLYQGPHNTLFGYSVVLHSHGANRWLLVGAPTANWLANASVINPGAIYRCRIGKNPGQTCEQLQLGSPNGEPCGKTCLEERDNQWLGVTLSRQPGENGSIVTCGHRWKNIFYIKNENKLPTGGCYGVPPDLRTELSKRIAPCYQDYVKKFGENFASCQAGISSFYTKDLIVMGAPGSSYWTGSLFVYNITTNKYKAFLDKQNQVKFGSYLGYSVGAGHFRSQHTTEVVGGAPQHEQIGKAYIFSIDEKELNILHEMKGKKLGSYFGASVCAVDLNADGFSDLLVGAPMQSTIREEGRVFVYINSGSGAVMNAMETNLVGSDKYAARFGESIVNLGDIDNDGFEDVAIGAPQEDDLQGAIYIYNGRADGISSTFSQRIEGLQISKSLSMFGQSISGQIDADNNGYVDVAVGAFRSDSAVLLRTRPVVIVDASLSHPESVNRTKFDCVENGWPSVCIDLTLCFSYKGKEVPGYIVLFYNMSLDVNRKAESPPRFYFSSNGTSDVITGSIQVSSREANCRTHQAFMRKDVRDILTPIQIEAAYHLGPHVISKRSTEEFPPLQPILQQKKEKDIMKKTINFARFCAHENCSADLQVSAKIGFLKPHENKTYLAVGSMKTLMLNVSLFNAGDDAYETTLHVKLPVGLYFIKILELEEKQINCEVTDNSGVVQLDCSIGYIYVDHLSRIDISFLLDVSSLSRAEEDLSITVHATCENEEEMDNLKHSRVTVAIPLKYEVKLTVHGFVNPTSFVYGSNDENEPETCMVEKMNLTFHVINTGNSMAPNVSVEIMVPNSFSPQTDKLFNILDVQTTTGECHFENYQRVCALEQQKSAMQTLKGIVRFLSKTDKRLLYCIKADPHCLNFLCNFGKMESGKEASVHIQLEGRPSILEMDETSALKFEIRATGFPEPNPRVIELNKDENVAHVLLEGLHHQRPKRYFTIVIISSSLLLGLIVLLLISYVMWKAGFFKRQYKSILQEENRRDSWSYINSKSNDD
VLA-4, sequence (P05556 21-798): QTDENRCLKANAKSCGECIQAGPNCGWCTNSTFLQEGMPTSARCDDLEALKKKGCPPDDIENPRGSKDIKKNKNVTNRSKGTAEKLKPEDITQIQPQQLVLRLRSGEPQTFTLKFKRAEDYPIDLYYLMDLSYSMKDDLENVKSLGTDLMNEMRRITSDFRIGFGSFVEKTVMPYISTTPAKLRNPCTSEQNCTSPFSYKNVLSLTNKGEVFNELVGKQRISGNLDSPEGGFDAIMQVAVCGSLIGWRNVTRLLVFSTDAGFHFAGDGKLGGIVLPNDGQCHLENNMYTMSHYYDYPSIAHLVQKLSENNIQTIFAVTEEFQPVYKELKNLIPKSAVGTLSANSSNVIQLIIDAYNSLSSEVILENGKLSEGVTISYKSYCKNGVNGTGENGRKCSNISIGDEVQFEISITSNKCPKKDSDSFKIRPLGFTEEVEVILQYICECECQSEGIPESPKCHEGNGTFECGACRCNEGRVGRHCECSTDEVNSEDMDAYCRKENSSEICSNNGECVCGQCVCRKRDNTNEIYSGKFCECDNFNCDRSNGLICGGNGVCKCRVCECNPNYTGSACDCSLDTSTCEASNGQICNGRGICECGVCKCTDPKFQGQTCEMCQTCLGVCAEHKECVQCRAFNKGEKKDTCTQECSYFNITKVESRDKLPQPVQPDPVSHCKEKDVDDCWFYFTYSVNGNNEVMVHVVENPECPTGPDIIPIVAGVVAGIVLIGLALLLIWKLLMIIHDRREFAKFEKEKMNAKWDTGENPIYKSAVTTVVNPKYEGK

Row | Relative Potency | Compound | Relative Potency [1]
1 | 43.7 | CC(C)C[C@@H](C(=O)N[C@@H](CC(=O)O)C(=O)N[C@@H](Cc1ccccc1)C(=O)N1CCC[C@@H]1C(N)=O)n1c(=O)[nH]c2ccccc2c1=O [896.63] | 
2 |  | CC(C)C[C@H](NC(=O)Cc1ccccc1)C(=O)N[C@@H](CC(=O)O)C(=O)NC1(C(=O)N2CCC[C@@H]2C(N)=O)CCc2ccccc2C1 (stereo partly shown) [896.65] (PhAc-LD[ξAtc][dP]-NH2) | 1.25
3 |  | CC(C)C[C@H](NC(=O)Cc1ccccc1)C(=O)N[C@@H](CC(=O)O)C(=O)N[C@@H](Cc1ccc([N+](=O)[O-])cc1)C(=O)N1CCC[C@@H]1C(N)=O [896.68] (PhAc-LD[Phe(4-NO2)][dP]-NH2) | 39.9
4 |  | CC(C)C[C@H](NC(=O)Cc1ccccc1)C(=O)N[C@@H](CC(=O)O)C(=O)N[C@H](C(=O)N1CCC[C@@H]1C(N)=O)c1ccccc1 [896.69] (PhAc-LD[Phg][dP]-NH2) | 61
5 |  | CC(C)C[C@H](NC(=O)Cc1ccccc1)C(=O)N[C@@H](CC(=O)O)C(=O)N[C@@H](CO)C(=O)N1CCC[C@@H]1C(N)=O [896.72] (PhAc-LDS[dP]-NH2) | 16.9
6 | 3.29 | CC(C)C[C@H](NC(=O)C(C)(C)C)C(=O)N[C@@H](CC(=O)O)C(=O)N[C@H](C(=O)N1CCC[C@H]1C(N)=O)C(C)C [926.01] | 
7 |  | CC(C)C[C@H](NC(=O)c1ccccc1)C(=O)N[C@@H](CC(=O)O)C(=O)N[C@H](C(=O)N1CCC[C@@H]1C(N)=O)C(C)C [926.02] | 9.6
8 | 1.83 | CC[C@@H](C)[C@@H](N)C(=O)N[C@@H](CC(C)C)C(=O)N[C@@H](CC(=O)O)C(=O)N[C@H](C(=O)N1CCC[C@@H]1C(N)=O)C(C)C [926.03] | 
9 | 1.88 | CC(C)C[C@H](NC(=O)[C@@H](N)Cc1ccccc1)C(=O)N[C@@H](CC(=O)O)C(=O)N[C@H](C(=O)N1CCC[C@@H]1C(N)=O)C(C)C [926.04] (H-FLDV[dP]-NH2) | 
10 | .94 | CC(C)C[C@H](NC(=O)[C@H](N)Cc1ccccc1)C(=O)N[C@@H](CC(=O)O)C(=O)N[C@H](C(=O)N1CCC[C@@H]1C(N)=O)C(C)C [926.05] (H-[dF]LDV[dP]-NH2) | 
11 | .08 | CC[C@H](C)[C@H](N)C(=O)N[C@@H](Cc1ccccc1)C(=O)N[C@@H](CC(=O)O)C(=O)N[C@H](C(=O)N1CCC[C@H]1C(N)=O)C(C)C [926.07] (H-IFDVP-NH2) | 
12 | .47 | CC[C@H](C)[C@H](N)C(=O)N[C@@H](CC1CCCCC1)C(=O)N[C@@H](CC(=O)O)C(=O)N[C@H](C(=O)N1CCC[C@H]1C(N)=O)C(C)C [926.08] (H-I[Cha]DVP-NH2) | 
13 | .41 | CCCC[C@H](NC(=O)[C@@H](N)[C@@H](C)CC)C(=O)N[C@@H](CC(=O)O)C(=O)N[C@H](C(=O)N1CCC[C@H]1C(N)=O)C(C)C [926.09] (H-I[Nle]DVP-NH2) | 
14 | .13 | CCC[C@H](NC(=O)[C@@H](N)[C@@H](C)CC)C(=O)N[C@@H](CC(=O)O)C(=O)N[C@H](C(=O)N1CCC[C@H]1C(N)=O)C(C)C [926.10] (H-I[Nva]DVP-NH2) | 
15 | .06 | CC[C@H](C)[C@H](N)C(=O)N(C)[C@@H](CC(C)C)C(=O)N[C@@H](CC(=O)O)C(=O)N[C@H](C(=O)N1CCC[C@H]1C(N)=O)C(C)C [926.11] (H-I[NMeL]DVP-NH2) | 
16 | 1.99 | CC[C@H](C)[C@H](N)C(=O)N[C@@H](CC(C)C)C(=O)N[C@@H](CC(=O)O)C(=O)N[C@@H](Cc1ccccc1)C(=O)N1CCC[C@H]1C(N)=O [926.12] (H-ILDFP-NH2) | 
17 | .3 | CC[C@H](C)[C@H](N)C(=O)N[C@@H](CC(C)C)C(=O)N[C@@H](CC(=O)O)C(=O)N[C@@H](CCSC)C(=O)N1CCC[C@H]1C(N)=O [926.13] (H-ILDMP-NH2) | 

Row | Relative Potency | Compound | Relative Potency [1]
18 | .13 | CC[C@H](C)[C@H](N)C(=O)N[C@@H](CC(C)C)C(=O)N[C@@H](CC(=O)O)C(=O)N[C@@H](CC1CCCCC1)C(=O)N1CCC[C@H]1C(N)=O [926.14] (H-ILD[Cha]P-NH2) | 
19 | .08 | CCCC[C@H](NC(=O)[C@H](CC(=O)O)NC(=O)[C@H](CC(C)C)NC(=O)[C@@H](N)[C@@H](C)CC)C(=O)N1CCC[C@H]1C(N)=O [926.15] (H-ILD[Nle]P-NH2) | 
20 | .34 | CCC[C@H](NC(=O)[C@H](CC(=O)O)NC(=O)[C@H](CC(C)C)NC(=O)[C@@H](N)[C@@H](C)CC)C(=O)N1CCC[C@H]1C(N)=O [926.16] (H-ILD[Nva]P-NH2) | 
21 | .21 | CC[C@H](C)[C@H](N)C(=O)N[C@@H](CC(C)C)C(=O)N[C@@H](CC(=O)O)C(=O)N[C@H](C(=O)N1CCC[C@H]1C(N)=O)[C@@H](C)CC [926.17] (H-ILDIP-NH2) | 
22 | 0 | CC[C@H](C)[C@H](N)C(=O)N[C@@H](CC(C)C)C(=O)N[C@@H](CC(=O)O)C(=O)N(C)[C@H](C(=O)N1CCC[C@H]1C(N)=O)C(C)C [926.18] (H-ILD[NMeV]P-NH2) | 
23 | 0.01 | CC(C)C[C@H](N)C(=O)N[C@@H](CC(=O)O)C(=O)N[C@H](C(N)=O)C(C)C [926.29] (H-Leu-Asp-Val-NH2) | 
24 |  | CC(=O)N[C@@H](CC(C)C)C(=O)N[C@@H](CC(=O)O)C(=O)N[C@H](C(N)=O)C(C)C [926.30] (Ac-Leu-Asp-Val-NH2) | .63
25 | 0.01 | CC(C)C[C@H](N)C(=O)N[C@@H](CC(=O)O)C(=O)N[C@@H](Cc1ccccc1)C(N)=O [926.31] (H-Leu-Asp-Phe-NH2) | 
26 | .47 | CC(=O)N[C@@H](CC(C)C)C(=O)N[C@@H](CC(=O)O)C(=O)N[C@@H](Cc1ccccc1)C(N)=O [926.32] (Ac-Leu-Asp-Phe-NH2) | 
27 | 19.4 | CC(C)C[C@H](NC(=O)c1cnccn1)C(=O)N[C@@H](CC(=O)O)C(=O)N[C@@H](Cc1ccccc1)C(=O)N1CCC[C@@H]1C(N)=O [951.02] (Pyrazinecarbonyl-LDF[dP]-NH2) | 
28 | 28.2 | CC(C)C[C@H](NC(=O)c1cn[nH]c1)C(=O)N[C@@H](CC(=O)O)C(=O)N[C@@H](Cc1ccccc1)C(=O)N1CCC[C@@H]1C(N)=O [951.03] (X18-LDF[dP]-NH2) | 
29 | 56.3 | CC(C)C[C@H](NC(=O)c1cnc2ccccc2c1)C(=O)N[C@@H](CC(=O)O)C(=O)N[C@@H](Cc1ccccc1)C(=O)N1CCC[C@@H]1C(N)=O [951.05] (Quinoline3carbonyl-LDF[dP]-NH2) | 
30 | 1.57 | CC(C)C[C@H](NS(=O)(=O)c1cccc2cccnc12)C(=O)N[C@@H](CC(=O)O)C(=O)N[C@@H](Cc1ccccc1)C(=O)N1CCC[C@@H]1C(N)=O [951.07] (X15-LDF[dP]-NH2) | 
31 | 6.26 | CC(C)C[C@H](NC(=O)Cc1ccc(Br)cc1)C(=O)N[C@@H](CC(=O)O)C(=O)N[C@@H](Cc1ccccc1)C(=O)N1CCC[C@@H]1C(N)=O [951.08] (X19-LDF[dP]-NH2) | 
32 | .63 | CC(C)C[C@H](NS(=O)(=O)c1ccc(Br)cc1)C(=O)N[C@@H](CC(=O)O)C(=O)N[C@@H](Cc1ccccc1)C(=O)N1CCC[C@@H]1C(N)=O [951.10] (Brosyl-LDF[dP]-NH2) | 
33 | 2.5 | CC(C)C[C@H](NC(=O)[C@H]1CCCN1)C(=O)N[C@@H](CC(=O)O)C(=O)N[C@@H](Cc1ccccc1)C(=O)N1CCC[C@@H]1C(N)=O [951.11] (H-[dP]LDF[dP]-NH2) | 

Row | Compound | Relative Potency | Relative Potency [1]
34 | CC(C)C[C@H](NC(=O)c1ccc2ccccc2n1)C(=O)N[C@@H](CC(=O)O)C(=O)N[C@@H](Cc1ccccc1)C(=O)N1CCC[C@@H]1C(N)=O [951.06] (Quinaldoyl-LDF[dP]-NH2) | 8.97 | 

From patent US5770573A, “CS-1 peptidomimetics, compositions and methods of using the same” (Cytel Corporation, priority 1995, dated 1998)
